In data set [1] the test system is Rattus norvegicus. Description: Evaluated for biodistribution in rat heart after 2 min of administration. Format: ADME, organism-based. The following applies: in vivo.
Data set [2] has as its system Rattus norvegicus. Description: Evaluated for biodistribution in rat heart after 6 min of administration. The following applies: in vivo, 0.1 h. It counts as ADME, organism-based.
Data set [3] deals with Rattus norvegicus. The experiment in a line: Evaluated for biodistribution in rat brain after 2 min of administration. It counts as ADME, organism-based. The conditions noted are these: in vivo.
The subject of data set [4] is Rattus norvegicus. The experiment in a line: Evaluated for biodistribution in rat thyroid after 1 min of administration. It counts as ADME, organism-based, Thyroid gland. The following applies: in vivo.
The subject of data set [5] is Rattus norvegicus. The experiment in a line: Evaluated for biodistribution in rat kidney after 2 min of administration. The conditions noted are these: in vivo. It counts as ADME, organism-based.
Data set [6] deals with Rattus norvegicus. Description: Evaluated for biodistribution in rat lung after 1 min of administration. Format: ADME, organism-based. The following applies: in vivo.
Data set [7] deals with Rattus norvegicus. The experiment in a line: Evaluated for biodistribution in rat heart after 1 min of administration. The following applies: in vivo. Format: ADME, organism-based.
Data set [8] deals with Rattus norvegicus. The experiment in a line: Evaluated for biodistribution in rat lung after 6 min of administration. Format: ADME, organism-based. The following applies: in vivo, 0.1 h.
In data set [9] the test system is Rattus norvegicus. The experiment in a line: Evaluated for biodistribution in rat kidney after 1 min of administration. The conditions noted are these: in vivo. Format: ADME, organism-based.
Data set [10] relates to Rattus norvegicus. Description: Evaluated for biodistribution in rat liver after 6 min of administration. It counts as ADME, organism-based. The following applies: in vivo, 0.1 h.
The subject of data set [11] is Rattus norvegicus. Description: Evaluated for biodistribution in rat kidney after 6 min of administration. Format: ADME, organism-based. The following applies: in vivo, 0.1 h.
Data set [12] relates to Rattus norvegicus. The experiment in a line: Evaluated for biodistribution in rat liver after 1 min of administration. It counts as ADME, organism-based. The conditions noted are these: in vivo.
For data set [13], the system named is Rattus norvegicus. Description: Evaluated for biodistribution in rat blood after 6 min of administration. Format: ADME, organism-based. The conditions noted are these: in vivo, 0.1 h.
Data set [14] relates to Rattus norvegicus. The experiment in a line: Evaluated for biodistribution in rat blood after 2 min of administration. It counts as ADME, organism-based. The conditions noted are these: in vivo.
In data set [15] the test system is Rattus norvegicus. Description: Evaluated for biodistribution in rat lung after 2 min of administration. The following applies: in vivo. Format: ADME, organism-based.
The test system of data set [16] is Rattus norvegicus. The experiment in a line: Evaluated for biodistribution in rat thyroid after 2 min of administration. The following applies: in vivo. It counts as ADME, organism-based, Thyroid gland.
Data set [17] concerns Rattus norvegicus. Description: Evaluated for biodistribution in rat thyroid after 6 min of administration. It counts as ADME, organism-based, Thyroid gland. The following applies: in vivo, 0.1 h.
Data set [18] relates to Rattus norvegicus. Description: Evaluated for biodistribution in rat blood after 1 min of administration. The conditions noted are these: in vivo. Format: ADME, organism-based.
Data set [19] concerns Rattus norvegicus. Description: Evaluated for biodistribution in rat brain after 1 min of administration. The following applies: in vivo. It counts as ADME, organism-based.
Data set [20] deals with Rattus norvegicus. The experiment in a line: Evaluated for biodistribution in rat liver after 2 min of administration. Format: ADME, organism-based. The conditions noted are these: in vivo.
Data set [21] concerns Rattus norvegicus. The experiment in a line: Evaluated for biodistribution in rat brain after 6 min of administration. The conditions noted are these: in vivo, 0.1 h. Format: ADME, organism-based.
Data set [22] can be described thus: Evaluated for the carrier level on brain uptake at 0.4 mg/kg dose in rat. Format: ADME, organism-based. Details: dose 0.4 mg/kg. The conditions noted are these: in vivo.
The nature of data set [23]: Evaluated for the carrier level on brain uptake at 0.04 mg/kg dose in rat. Format: ADME, organism-based. Details: dose 0.04 mg/kg. The following applies: in vivo.
Data set [24] in a line: Evaluated for the carrier level on brain uptake at 40 mg/kg dose in rat. Format: ADME, organism-based. The following applies: in vivo. On the set-up: dose 40 mg/kg.
Data set [25] can be described thus: Evaluated for the carrier level on brain uptake at 4 mg/kg dose in rat. Details: dose 4 mg/kg. It counts as ADME, organism-based. The conditions noted are these: in vivo.

In the case of `CN(C)Cc1ccccc1I`, the Biodistribution was determined as 0.59% in the data set on Rattus norvegicus [1]; 0.014% with Rattus norvegicus [2]; 2.42% in the data set with Rattus norvegicus [3]; 0.01% in the data set on Rattus norvegicus [4]; 10.12% in the data set with Rattus norvegicus [5]; 0.19% in the data set on Rattus norvegicus [6]. In addition, the Biodistribution with Rattus norvegicus [7] worked out at 0.06%; with Rattus norvegicus [8], 0.04%; with Rattus norvegicus [9], 1.03%; with Rattus norvegicus [10], 0.45%; in the data set on Rattus norvegicus [11] it was 0.34%; in the data set with Rattus norvegicus [12], 1.92%. The Biodistribution in the data set on Rattus norvegicus [13] worked out at 0.35%; with Rattus norvegicus [14], 7.01%; with Rattus norvegicus [15], 2.9%; in the data set on Rattus norvegicus [16], 0.11%; in the data set on Rattus norvegicus [17] it was 0.035%; in the data set with Rattus norvegicus [18], 1.35%. For the same compound, the Biodistribution in the data set on Rattus norvegicus [19] amounted to 0.07%; in the data set with Rattus norvegicus [20] it was 11.81%; in the data set on Rattus norvegicus [21], 0.022%.

Regarding `CN(C)Cc1ccc(I)c(CN(C)C)c1`, the Biodistribution is on record as 2.76% in the data set with Rattus norvegicus [1]; 0.19% with Rattus norvegicus [2]; 2.4% in the data set on Rattus norvegicus [3]; 0.11% with Rattus norvegicus [4]; 7.69% in the data set with Rattus norvegicus [5]; 4.36% in the data set on Rattus norvegicus [6]. For the same compound, the Biodistribution with Rattus norvegicus [7] amounted to 0.44%; in the data set with Rattus norvegicus [8], 1.96%; with Rattus norvegicus [9], 6.19%; in the data set on Rattus norvegicus [10], 7.81%; in the data set on Rattus norvegicus [11] it was 2.98%; in the data set with Rattus norvegicus [12] it was 18.31%. Further, the Biodistribution amounted to 0.42% with Rattus norvegicus [13]; 3.52% in the data set with Rattus norvegicus [14]; 22.63% in the data set with Rattus norvegicus [15]; 0.28% with Rattus norvegicus [16]; 0.14% with Rattus norvegicus [17]; 0.83% in the data set with Rattus norvegicus [18]. Also, the Biodistribution with Rattus norvegicus [19] is 2.36%; in the data set on Rattus norvegicus [20], 9.52%; with Rattus norvegicus [21], 1.51%. Besides, the Brain uptake worked out at 3.03% in data set [22], 2.67% in data set [23], 2.43% in data set [24] and 2.09% in [25].

`Ic1ccc(CN2CCCCC2)cc1CN1CCCCC1`: the Biodistribution is 3.19% in the data set on Rattus norvegicus [1]; 0.18% in the data set with Rattus norvegicus [2]; 1.7% in the data set with Rattus norvegicus [3]; 0.15% in the data set on Rattus norvegicus [4]; 7.33% in the data set with Rattus norvegicus [5]; 6.65% in the data set on Rattus norvegicus [6]. Besides, the Biodistribution in the data set on Rattus norvegicus [7] is 0.51%; in the data set on Rattus norvegicus [8] it was 1.75%; in the data set on Rattus norvegicus [9], 7.75%; in the data set on Rattus norvegicus [10] it was 9.2%; with Rattus norvegicus [11], 1.97%; in the data set on Rattus norvegicus [12], 13.51%. Moreover, the Biodistribution in the data set on Rattus norvegicus [13] was 0.77%; in the data set with Rattus norvegicus [14], 4.11%; with Rattus norvegicus [15], 26.54%; with Rattus norvegicus [16], 0.22%; in the data set on Rattus norvegicus [17] it was 0.11%; with Rattus norvegicus [18], 1.6%. The Biodistribution came to 1.47% in the data set on Rattus norvegicus [19], 12.5% with Rattus norvegicus [20] and 0.7% with Rattus norvegicus [21].

For `CC(C)NCc1ccc(I)c(CNC(C)C)c1`, the Biodistribution with Rattus norvegicus [1] came to 2.18%; with Rattus norvegicus [2] it was 0.83%; in the data set with Rattus norvegicus [3], 0.62%; in the data set on Rattus norvegicus [4] it was 0.27%; in the data set on Rattus norvegicus [5], 6.93%; with Rattus norvegicus [6] it was 13.02%. The Biodistribution in the data set on Rattus norvegicus [7] stood at 1.99%; in the data set with Rattus norvegicus [8] it was 8.71%; in the data set on Rattus norvegicus [9], 6.71%; with Rattus norvegicus [10], 5.17%; in the data set with Rattus norvegicus [11], 3.4%; in the data set with Rattus norvegicus [12], 8.38%. Also, the Biodistribution was 1.33% with Rattus norvegicus [13]; 6.42% in the data set with Rattus norvegicus [14]; 31.98% in the data set on Rattus norvegicus [15]; 0.18% with Rattus norvegicus [16]; 0.45% in the data set with Rattus norvegicus [17]; 1.76% with Rattus norvegicus [18]. In addition, the Biodistribution with Rattus norvegicus [19] is given as 0.64%; in the data set on Rattus norvegicus [20], 10.22%; in the data set on Rattus norvegicus [21], 0.59%.

The values are drawn from ChEMBL document CHEMBL1122101, “Synthesis and tissue distribution study of iodine-labeled benzyl- and xylylamines” (J Med Chem, 1982).
